Here are results for one compound from ChEMBL document CHEMBL4619712, “Double-component diazeniumdiolate derivatives as anti-cancer agents” (Bioorg Med Chem, 2020).

The structures appear in SMILES notation.

What all share (format): functional, cell-based
One assay has as its system CCRF-CEM. Put plainly: Anticancer activity against human CCRF-CEM cells assessed as inhibition of cell growth after 72 hrs by MTT or MTS assay.
The subject of another assay is A549. The experiment in a line: Anticancer activity against human A549 cells assessed as inhibition of cell growth after 72 hrs by MTT or MTS assay. The conditions noted are these: A549, 72 h.
A further assay relates to MDA-MB-231. Put plainly: Anticancer activity against human MDA-MB-231 cells assessed as inhibition of cell growth after 72 hrs by MTT or MTS assay. The conditions noted are these: MDA-MB-231, 72 h.
A further assay concerns BT-474. Put plainly: Anticancer activity against human BT474 cells assessed as inhibition of cell growth after 72 hrs by MTT or MTS assay. As to conditions: BT-474, 72 h.
In the next assay the test system is Jurkat E6.1. Put plainly: Anticancer activity against human Jurkat E6-1 cells assessed as inhibition of cell growth after 72 hrs by MTT or MTS assay. The conditions noted are these: Jurkat E6.1, 72 h.

Take `CCOC(=O)N1CCN(/[N+]([O-])=N/Oc2ccc([N+](=O)[O-])cc2[N+](=O)[O-])CC1`: the IC50 in the assay on CCRF-CEM was determined as 890 nM; in the assay on A549 it was 2110 nM; in the assay on MDA-MB-231, 7930 nM; in the assay on BT-474, 3660 nM; with Jurkat E6.1 it was 920 nM.
